These results are taken from patent US20260373226A1, “METHODS AND COMPOSITIONS FOR THE TREATMENT OF NEURODEGENERATIVE DISEASE” (Stealth BioTherapeutics Inc., priority 2022, published 2026).

The nature of data set [1]: Steady state PK in plasma, CSF, brain after 5 daily s.c. doses in rats. Type of data set: in vivo, male Sprague-Dawley rat. The settings on record: rat, 10 mg/kg s.c., 5 daily doses. As for the experimental part: Pharmacokinetic profile of SBT-272 in rat plasma, CSF, and brain (for FIG. 5A). The objective of this study was to evaluate the pharmacokinetics of SBT-272 in microdialysate from the prefrontal cortex (PFC) and striatum (STR), and in plasma and CSF of freely-moving adult male Sprague-Dawley rats. The experiments and the analysis were performed at Charles River Laboratories Den Bosch B.V., location Groningen (Groningen, the Netherlands).
Test items. Test compound was SBT-272. The molecular weight of SBT-272 is 607.75 g/mol in the salt-free form, and 717.13 g/mol in the salt form.
In vivo experiments: Animals. A total of six male Sprague-Dawley rats (309-329 g; CRL Sulzfeld, Germany) were used for the experiments. The experiments were conducted in strict accordance with the Guide for the Care and Use of Laboratory Animals (National Research Council 2011) and were in accordance with European Union directive 2010/63 and the Dutch law. The experiments were carried out under license number AVD23600202011187, issued by the national committee for licensing of animal experiments (Centrale Commissie Dierproeven) and were approved by the Animal Care and Use Committee (Instantie voor Dierenwelzijn) of Charles River Discovery Groningen.
Following arrival, animals were housed in groups of 5 in polycarbonate cages (56 X 33×20 cm) with wire mesh top in a temperature (22±2 °C) and humidity (55±15%) controlled environment on a 12 hour light cycle (07.00-19.00 h). After surgery, animals were housed individually (cages 30×30×40 cm). Standard diet (A04 mod. R/M-M, Ssniff, Germany) and domestic quality mains water were available ad libitum.
In vivo experiments: Surgery. Animals were anesthetized using isoflurane (2% and 800 mL/min 02). Before surgery, carprofen (5 mg/kg, s.c.) was administered for peri- and post-operative analgesia. A mixture of bupivacaine and epinephrine was applied to the incision site and periosteum of the skull for local analgesia.
In vivo experiments: Microdialysis probe implantation. Each animal was placed in a stereotaxic frame (Kopf instruments, USA). […]

Data set [2] is described as follows: SBT-272 level in brain homogenates after ET-1 injection. Type of data set: in vivo. The settings on record: rat hemibrain, 24 hours after final treatment. From the text: FIG. 2B is a schematic showing the experimental design. Dotted lines indicate left and right subsection of hemibrain used for RCR and PK analysis (FIG. 2B). FIG. 2C: individual respiratory control ratios (RCR) per animal (n=8 per group) from the stroke-induced subsection of the right hemisphere. FIG. 2D: SBT-272 level in the brain homogenates from the same hemisphere after ET-1 injection. ET1=endothelin-1, vasoconstrictive peptide (*P<0.05, Kruskal-Wallis followed by Dunn's test).
Improved respiratory control ratio after cerebral ischemia reperfusion. To assess its pharmacodynamic effect on mitochondrial function in the brain, SBT-272 was tested in a rat model of acute ischemia. The mitochondrial effects of SBT-272 were determined using the respiratory control ratio (RCR), the ratio of coupled respiration (supporting oxidative phosphorylation) to respiratory rate in the absence of ADP (“leak” respiration). The high mitochondrial RCR in sham-treated animals (9.0±0.1) confirmed that the mitochondrial were healthy, as the majority of respiration accounted for replenishing cellular ATP levels (FIG. 2C).

Data set [3] is described as follows: Brain exposure PK in rats after single SC dose. Type of data set: in vivo. The following applies: rat; single 5 mg/kg SC. The procedure:
FIG. 2A is a chart showing the in vivo pharmacokinetic (PK) and pharmacodynamic (PD) response to SBT-272 brain exposure in rats. Rat brain SBT-272 concentrations up to 36 hours after a single dose of SBT-272 (5 mg/kg; subcutaneous (SC); n=8 rats per time-point).
Evaluation of SBT-272 exposure in brain tissues after subcutaneous dosing. Brain tissues were collected, at various time points (see FIG. 2A) following a single 5 mg/kg subcutaneous (SC) administration of SBT-272 (n=8 rats per time point).
Briefly, issues samples were weighed in 2 mL microcentrifuge tubes (micro tube 2 mL, low protein binding, with screw cap, REF 72.694.600 (Sarstedt, Germany), weight of tissues was recorded in the study file. The centrifuge tubes were kept on ice throughout the procedure. Four times tissue weight purified deionized water with 0.1% formic acid (v/w) was added. Two metal beads were placed in each microcentrifuge tube (Metal Bead Lysing Matrix Bulk, MP, USA). Brain tissues were homogenized using Bead Ruptor (Omni International, USA) for 60 seconds using a speed of […] per cycle. Homogenates (96 μL) were transferred to […] microcentrifuge tubes with surface that minimized binding (REF 04-212-3500, Nerbe Plus, Germany). Homogenates were frozen and kept at −80 °C until sample extraction for LC/MS/MS analysis. Two samples (twice 96 μL) collected, one kept if repeat required. […]

With `Cc1cc(O)cc(C)c1C[C@H](NC(=O)[C@H](N)CCCNC(=N)N)C(=O)N[C@@H](CCCCN)c1nc(Cc2ccccc2)no1` [SBT-272, (R)-2-amino-N—((S)-1-(((S)-5-amino-1-(3-benzyl-1,2,4-oxadiazol-5-yl)pentyl)amino)-3-(4-hydroxy-2,6-dimethylphenyl)-1-oxopropan-2-yl)-5-guanidinopentanamide], the Kp in data set [1] (brain, sc, read-out: brain:plasma ratio) was determined as 178. In data set [1], the “brain:CSF ratio” value worked out at 182 and the “plasma:CSF ratio” value is recorded as 1.03. In addition, the “brain concentration, dose relation” value in data set [2] is listed as “dose proportional”. The “brain penetration / biodistribution across the blood-brain-barrier” value in data set [3] was “brain penetrant and exhibited optimized biodistribution across the blood-brain-barrier”.
